Each structure is given as a SMILES string. Activity calls are given as the source filed them.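 Rule for the calls: active = in confirmatory dose-response testing, peak deubiquitinase inhibition of 30% or more; inactive = the rest.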

The test has as its target Ubiquitin carboxyl-terminal hydrolase 28 (Homo sapiens) (UniProt Q96RU2). In words: Ubiquitin-specific peptidase 28 DUB inhibitors, biochemical concentration-dependence assay, validation of primary screening hits (AID 1645866). Particulars: purified USP28, ubiquitin-rhodamine fluorescence, 30 min.

Sequence of Ubiquitin carboxyl-terminal hydrolase 28 (Homo sapiens) (Q96RU2 whole entry, looked up): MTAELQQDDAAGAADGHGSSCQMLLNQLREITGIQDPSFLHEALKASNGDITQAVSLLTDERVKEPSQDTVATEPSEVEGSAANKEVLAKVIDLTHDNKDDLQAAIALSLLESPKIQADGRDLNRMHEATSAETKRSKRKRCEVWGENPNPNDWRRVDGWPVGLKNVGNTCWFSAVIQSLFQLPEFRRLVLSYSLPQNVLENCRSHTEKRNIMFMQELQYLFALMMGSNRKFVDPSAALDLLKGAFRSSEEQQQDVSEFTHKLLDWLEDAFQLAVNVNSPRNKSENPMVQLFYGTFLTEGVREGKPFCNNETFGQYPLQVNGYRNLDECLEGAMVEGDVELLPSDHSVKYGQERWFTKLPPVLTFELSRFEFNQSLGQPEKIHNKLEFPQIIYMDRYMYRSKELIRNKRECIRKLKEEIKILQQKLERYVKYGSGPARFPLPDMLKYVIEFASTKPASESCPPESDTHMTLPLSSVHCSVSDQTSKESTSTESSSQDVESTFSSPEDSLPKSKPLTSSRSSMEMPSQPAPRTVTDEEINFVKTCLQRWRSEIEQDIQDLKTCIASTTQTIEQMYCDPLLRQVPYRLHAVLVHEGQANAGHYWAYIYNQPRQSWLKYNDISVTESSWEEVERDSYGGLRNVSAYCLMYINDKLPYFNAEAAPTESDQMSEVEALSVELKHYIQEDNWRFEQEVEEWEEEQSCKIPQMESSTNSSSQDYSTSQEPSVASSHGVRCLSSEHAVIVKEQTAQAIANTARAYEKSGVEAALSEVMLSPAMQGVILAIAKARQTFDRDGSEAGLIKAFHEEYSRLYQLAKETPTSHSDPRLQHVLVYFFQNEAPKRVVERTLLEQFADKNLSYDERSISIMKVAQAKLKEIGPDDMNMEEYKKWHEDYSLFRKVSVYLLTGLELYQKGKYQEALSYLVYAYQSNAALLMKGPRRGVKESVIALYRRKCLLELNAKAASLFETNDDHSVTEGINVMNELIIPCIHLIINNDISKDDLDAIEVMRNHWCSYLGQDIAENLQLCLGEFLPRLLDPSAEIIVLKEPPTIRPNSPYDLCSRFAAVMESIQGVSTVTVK

`CC(C(=O)Nc1ccccc1)n1cnc2nc(N3CCCCC3)ncc2c1=O` (configuration not stated): the IC50 was > 50 µM (inactive).
For the molecule `O=C(Nc1ccc(Cl)cc1F)c1cc(-c2ccccn2)n[nH]1`, the 50% inhibitory concentration (IC50) is 1.7 µM.
Under `O=C(NCc1nc2ccccc2[nH]1)c1cccc(S(=O)(=O)N2CCc3ccccc32)c1` stands 31.4 µM.
As for `CC(=O)c1sc(NC(=O)c2ccccc2-c2ccc(C(F)(F)F)cc2)nc1C`, the IC50 is 18.8 µM.
Under `CC(=O)c1cccc(NC(=O)c2ccc3[nH]c4c(c3c2)CC(C)CC4)c1` (configuration not stated) stands > 50 µM (inactive); under `O=C(NCc1ccccc1Cl)c1ccc(-c2nnc(-c3ccccc3)o2)cc1`, 2.13 µM; under `CCn1cc2c(n1)c(=O)n(Cc1ccc(C)cc1)c(=O)n2CC(=O)Nc1ccc(F)cc1`, 11 µM.
In the case of `COC(=O)c1ccc(NC(=O)CSc2nnc(-c3ccc(O)cc3)n2Cc2ccco2)cc1` it was 33.9 µM; in that of `O=C(CN1C(=O)C2CCCC2=Nc2ccccc21)Nc1ccc(F)cc1F` (configuration not stated), 26.2 µM.
Under `CCCc1c(C(=O)O)c(O[C@H]2O[C@H](C)[C@@H](OC)[C@H](OC)[C@@H]2OC)cc2cc3c(c(O)c12)C(=O)c1c(O)cc(O[C@@H]2O[C@@H](C)[C@H](O[C@H]4O[C@H](C)[C@@H](OC)[C@H](OC)[C@@H]4O)[C@@H](OC)[C@H]2O)cc1C3=O` stands > 50 µM (inactive).
For `O=C(NCc1ccncc1)C1CCN(c2cncnc2N2CCCCC2)CC1`, the IC50 was 1.82 µM.
In the case of `COC(=O)c1ccc2c(=O)n(CCCCCC(=O)NCCc3ccc(S(N)(=O)=O)cc3)c(=O)[nH]c2c1` it was 8.65 µM; in that of `Cc1ccc(CNC(=O)c2cccc(N3C(=O)N4CCc5c([nH]c6ccccc56)[C@@]4(C)C3=O)c2)cc1`, 44 µM; in that of `CC(C)N1CC[C@@H]2[C@H](C1)CN2C(=O)Nc1cccc(F)c1`, > 50 µM (inactive).
Consider `O=C1CC(c2ccco2)Cc2[nH]c(=O)c(-c3nc(-c4ccc(Cl)cc4)cs3)cc21` (configuration not stated), for which the IC50 was > 50 µM (inactive).
On to `COC1=C(C2=C(OC)C(=O)c3cc4c(c(O)c3C2=O)C(=O)OC(C)C4)C(=O)c2c(cc3c(c2O)C(=O)OC(C)C3)C1=O` (configuration not stated), for which the IC50 was 1.05 µM.
Take `CC(C)Oc1ccc(C(=O)Nc2cccc(S(=O)(=O)N3CCCC3)c2)cc1`: the IC50 is 10.7 µM.
On to `COc1ccc(NC(=O)Cn2c(CSc3ccc(C)cc3)nc3ccccc32)cc1`, for which the IC50 is 20.8 µM.
On to `COc1cc(C(=O)NC(Cc2ccccc2)c2nc3ccccc3[nH]2)cc(OC)c1OC` (configuration not stated), for which the IC50 is 3.77 µM.
Under `c1ccc(-c2ccc(NCc3ccc4c(c3)OCO4)nn2)cc1` stands 6.27 µM.
In the case of `CCCCNC(=O)c1cc2cccnc2n(Cc2ccccc2)c1=O` it was > 50 µM (inactive); in that of `Cc1cccc(C(=O)NCc2nc3ccccc3n2Cc2ccccc2C)c1`, > 50 µM (inactive); in that of `COc1ccccc1NC(=O)Cn1cc(C(=O)c2ccc(C)cc2)c(=O)c2cc(Cl)ccc21`, 11.3 µM.
Consider `Cc1ccc(Cn2nnc(-c3ccccc3Cl)n2)cc1`, for which the IC50 was 13.9 µM.
Under `O=C(COc1cccc(C(=O)NCc2ccccc2)c1)Nc1ccc(Oc2ccccc2)cc1` stands 27.9 µM; under `CCc1ccc2[nH]c3c(c(=O)c2c1)CN(CC(=O)NCc1ccc2c(c1)OCO2)CC3`, 20 µM.
On to `Cc1cc(/C=C2/C(=N)N3C(c4ccccc4)=CSC3=NC2=O)c(C)n1-c1ccc2ccccc2c1`, for which the IC50 is > 50 µM (inactive).
Under `O=C(NCc1ccco1)c1ccc2c(c1)N(Cc1cccc(F)c1)C(=O)c1ccccc1S2` stands > 50 µM (inactive); under `Cc1ccc(/C=C/C(=O)Nc2ccc3c(c2)OCCO3)cc1`, 3.76 µM.
In the case of `O=C(CNC(=O)c1cc2ccccc2[nH]1)Nc1ccc2c(c1)OCCO2` it was 45.9 µM.
As for `CSc1ccccc1C(=O)Nc1sc2c(c1C(N)=O)CCC(C)C2` (configuration not stated), the IC50 is 2.78 µM.
In the case of `CC(=O)N1Cc2ccccc2CC2(CCCN(CC3CCOCC3)C2)C1` (configuration not stated) it was > 50 µM (inactive); in that of `Cc1ccc(-n2cc3c(N4CCCC(C(=O)NCC5CCCCC5)C4)ncnc3n2)cc1` (configuration not stated), > 50 µM (inactive); in that of `O=[N+]([O-])c1ccc(NCc2ccc(-c3cccs3)s2)nc1`, 2.19 µM.
Take `O=C(CSc1ccc(-c2cccc([N+](=O)[O-])c2)nn1)Nc1cccc(F)c1`: the IC50 was 2.23 µM.
`O=C(Nc1cccc2ccccc12)N1CCC(c2nc3c(nnn3Cc3ccc(F)cc3)c(=O)[nH]2)CC1`: the IC50 is 36.1 µM.
For `Cc1ccc(NC(=O)c2ccn(COc3ccc(F)cc3)n2)nc1`, the IC50 was 33.3 µM.
Under `O=c1ncn(Cc2ccc3c(c2)OCO3)cc1-c1ncc(C(F)(F)F)cc1Cl` stands > 50 µM (inactive); under `O=C(c1ccc(COc2cccc3ccccc23)o1)N1CCC(Cc2ccccc2)CC1`, > 50 µM (inactive).
Turning to `Cc1ccc([N+](=O)[O-])cc1S(=O)(=O)Nc1cc2sc(=O)oc2c2ccccc12`, the IC50 is 13.6 µM.
As to `CCS(=O)(=O)N1CCc2cc(C(=O)Nc3ccc4c(c3)OCCO4)ccc21`, the IC50 is 0.364 µM.
As for `O=C(COC(=O)c1n[nH]c2ccccc12)Nc1ccc(N2CCCCC2)cc1`, the IC50 is 25.9 µM.
Take `COc1ccc(Cn2cnc3c([nH]c4ccc(Br)cc43)c2=O)cc1`: the IC50 is 1.72 µM.
Regarding `CC(C)c1ccc(C(C(=O)NC2CCCCC2)N(C(=O)c2cnccn2)c2cccc(F)c2)cc1` (configuration not stated), the IC50 is 23 µM.
As for `Cc1ccc(-c2noc(-c3nnc(SCC(=O)NC4CCCC4)n3C)n2)cc1`, the IC50 result is “inactive”.
Under `COc1ccc2cc3c(nc2c1)OC(=O)N(CCc1cccc(F)c1)C3` stands 0.233 µM; under `Cc1ccc2c(c1)c(=O)c(C(=O)c1ccccc1)cn2CC(=O)Nc1ccccc1`, 15.4 µM; under `CC(C)NS(=O)(=O)c1cccc2c(NC(=O)C(Cc3ccccc3)NC(=O)c3ccccc3)cccc12` (configuration not stated), > 50 µM (inactive).
With `CC(=O)Nc1ccc(NC(=O)c2cc(-c3cc(C)cc(C)c3O)n[nH]2)cc1`, the IC50 was 10.8 µM.
As to `COc1ccc(CNC(=O)CN2C(=O)C(C)=C(c3ccc(C)cc3)S2(=O)=O)cc1`, the IC50 is > 50 µM (inactive).
Under `Cn1cc(-c2cnc(-c3cccc(F)c3)nc2)cc1C(=O)NCc1cccnc1` stands 36.8 µM.
In the case of `Cc1ccc(NC(=O)Cc2nnc3cc(-c4nc(C)no4)ccn23)cc1` it was 5.02 µM.
`CC(=O)Nc1ccc(O)c(-c2nc3cc(C)ccc3o2)c1`: the IC50 was 3.38 µM.
In the case of `CC1CCN(c2cc(-n3cnc(C(=O)N4CCCC(C)C4)c3)ncn2)CC1` (configuration not stated) it was 10.1 µM.
In the case of `Cc1nc2cc(NC(=O)C3CN(C(=O)c4cnccn4)C3)ccc2s1` it was 9.44 µM; in that of `COc1cc2c(c(OCC(=O)Nc3ccc4c(c3)OCCO4)c1)C(=O)O[C@@H](C)CCCC(=O)CCCCC2`, 20.7 µM.
In the case of `O=C1COc2ccc(NC(=O)c3cnn(Cc4ccccc4)c3)cc2N1` it was 25.4 µM.
On to `COc1ccc(-c2cc3nc([C@H](C)NC(=O)Cc4ccccc4C)nn3cn2)cc1`, for which the IC50 was 2.61 µM.
For the molecule `Cc1ccc2nc(CCc3ccc(NS(=O)(=O)c4cccc(Cl)c4C)cc3)[nH]c2c1`, the IC50 is 27.1 µM.
In the case of `COCC(=O)Nc1cc(F)c2nc(N3CCOCC3)ccc2c1` it was > 50 µM (inactive).
Under `c1coc(CNc2nc3ccccc3n3nnnc23)c1` stands > 50 µM (inactive); under `CC(=O)CN1CC2(CCN(Cc3ccc(F)cc3)CC2)COc2ccccc2S1(=O)=O`, > 50 µM (inactive).

For orientation: IC50 means the concentration needed to halve the response being measured.

Source of the values: PubChem BioAssay AID1645866 (Buhrlage Lab, Dana-Farber Cancer Institute and Novartis …, 2021).
